Test results as given in patent US20250205158A1, “BIODEGRADABLE LIPIDS AND FORMULATIONS FOR DELIVERY OF MRNA” (Massachusetts Institute of Technology, priority 2023, published 2025).

Columns and labels:
[1] = TNS assay of LNP pKa; type: physicochemical
Experimental: Structural features of AMG lipids that facilitate mRNA delivery. The factors contributing to lipid potency were evaluated. The ionization properties of AMG1541 LNPs were investigated using a previously established 6-(p-toluidino)-2-napthalenesulfonic acid (TNS) assay.^22 The pKa of AMG LNPs showing higher in vivo mRNA transfection than SM-102 ranged between pH 6.4-6.7. […] In addition to endosomal buffering, it is hypothesized that the protonated ionizable lipids within the acidic endosome bind with anionic phospholipids within the endosomal membrane, destabilizing the membrane's bilayer and promoting endosomal pore formation.^17,52 The membrane fusion properties of the ionizable lipids was evaluated via ^31P NMR. When bilayer forming DPPS vesicles were mixed with equimolar AMG lipid under acidic conditions, a bilayer to hexagonal phase transition was observed, indicating their membrane-destabilizing nature (FIG. 15D).

[2] = test system: liver; test: fLuc mRNA LNP protein expression after intravenous injection; type: in vivo; settings: 0.25 mg/kg dose, 6 hrs.
Experimental: Evaluation of the LNPs via intravenous injection. The lipids were initially evaluated for intravenous protein expression by administration of a 0.25 mg/kg dose […] of fLuc mRNA LNPs.

Which “LNP pKa” value [1] does the source give for `CCCCCC/C=C\CCCC(=O)OCC(O)CN1CCN(CC(O)COC(=O)CCC/C=C\CCCCCC)CCN(CC(O)COC(=O)CCC/C=C\CCCCCC)CCN(CC(O)COC(=O)CCC/C=C\CCCCCC)CCN(CC(O)COC(=O)CCC/C=C\CCCCCC)CCN(CC(O)COC(=O)CCC/C=C\CCCCCC)CC1` (centres unmarked) [AMG1541] here?
Its value is roughly 6.5.

And the “protein expression after intravenous fLuc mRNA LNPs” value [2]?
The value was “comparable levels of protein expression to lipid MD-1”.
